Converted amounts (≈) assume the structure as drawn.
Assays:
Staphylococcus aureus = experiment: Antibacterial activity against Staphylococcus aureus ATCC 6538 after 24 hrs; type: functional; settings: ATCC 6538, 24 h
A549 = experiment: Cytotoxicity against human A549 cells after 48 hrs by MTS assay; type: functional, cell-based; settings: A549, 48 h
T-24 = experiment: Cytotoxicity against human T24 cells after 48 hrs by MTS assay; type: functional, cell-based; settings: T-24, 48 h

| MIC (Staphylococcus aureus) [µg/mL] | Compound | IC50 (A549) [µM] | IC50 (T-24) [µM] |
| --- | --- | --- | --- |
| 11.4 (≈ 48.6 µM) | C=C(C)[C@@H]1CC[C@]2(C)C(=C(C)C(=O)C[C@H]2O)C1 [LIGUCYPERONOL] | – | – |
| – | COc1c(O)c(-c2c(O)c(OC)c(OC)c3c2OC(C)(O)C3=O)c2c(c1OC)C(=O)C(C)(O)O2 (centres undefined) [ARUNDINONE B] | 81.6 | 35.4 |
| 0.46 (≈ 1.32 µM) | CC1(C)S[C@@H]2[C@H](NC(=O)[C@H](N)c3ccccc3)C(=O)N2[C@H]1C(=O)O [AMPICILLIN] | – | – |

Reference: ChEMBL document CHEMBL2331453, “Arundinols A-C and arundinones A and B from the plant endophytic fungus Microsphaeropsis arundinis” (J Nat Prod, 2013)
